Results on 3 molecules are retold here after patent US4906661A, “Esters of aryloxypropanolamine derivatives” (E. I. Du Pont de Nemours and Company, priority 1989, dated 1990).

One may read the fraction remaining as what is left of the initial amount, in per cent.

Data set [1] can be described thus: Half-life in dog whole blood (procedure D). Type of data set: in vitro ADME. To be noted: 37° C., read-out: T1/2 dog blood. The method, then: (§1) In each experiment, 1 ml of a solution containing 50 μg of the test compound was added to 1 ml of whole blood or 1 ml of a 33% (w/v) liver homogenate. The samples were incubated in a Dubnoff shaking metabolic incubator for 2.5, 5.0, 10.0, 20.0, 30.0 and 60.0 minutes at 37° C. At the designated time periods, the test mixtures were removed from the incubator and transferred to a 0° C. ice bath. Acetonitrile (2 ml) was immediately added and the mixtures were mixed to stop enzymatic hydrolysis. Zero time samples were prepared by adding 2 ml of acetonitrile to denature the proteins prior to addition of the test compounds. After centrifugation to sediment denatured proteins, 2 ml of the supernatant was removed and analyzed by high pressure liquid chromatography, using a mobile phase of 60% acetonitrile/40% 0.05 M sodium phosphate buffer (pH 6.6), a U.V. detector and Waters μ Bondapak Phenyl column.
(§2) The half life of each test compound was determined graphically by plotting the decrease in concentrations as a function of time.

Data set [2] can be described thus: Half-life in dog liver homogenate (procedure D). In kind it is in vitro ADME. The settings on record: 37° C., read-out: T1/2 dog liver homogenate. The method, then: as §1, §2
Data set [3] deals with β1 receptors, guinea pig right atria (Cavia porcellus, UniProt H0W3H1). Kind of data set: cell-based. The settings on record: Table I; guinea pig right atria, vs isoproterenol; -log KB; read-out: PA2 Rt. Atria (converted). The procedure: Each tissue was suspended between a fixed glass rod and a Statham Universal Transducer connected to a Beckman recorder. Atria were allowed to beat spontaneously under a loading tension of approximately 0.5 gm. Intrinsic depressant or stimulant activity was determined for each compound by progressively increasing concentrations in the tissue baths at 60-minute intervals. Tissues were not washed between increments. The maximum concentration showing little or no cardiodepressant activity was chosen for blockade experiments. Changes in rate in response to isoproterenol, a standard β-receptor agonist, were measured in the absence and presence of test compounds. Spiral strips of guinea pig trachea were suspended under 5 gm resting tension and incubated with phentolamine, tropolone and cocaine. Active tension was generated by addition of carbachol (3.0×10^-7 M) and decreases in tension in response to isoproterenol were quantitated. Cumulative concentration-response curves were produced with isoproterenol both before and after 60-minute incubation of test compounds with atria and trachea. […] The blocking potency of test compounds was estimated by computing pA2 values (-log KB) by the method of Furchgott, the Pharmacological Differentiation of Adrenergic Receptors, Ann. […] The degree of cardioselectivity was estimated from the ratio, KB trachea/KB atria (10^(pA2 atria-pA2 trachea)). A ratio greater than one indicates cardioselectivity. Test drugs were dissolved in distilled water and added to the bath (30 ml) in a volume of 10 or 100 μl.

Data set [4] can be described thus: Enzymatic hydrolysis by dog blood (procedure C). Type of data set: in vitro ADME. To be noted: 37° C.; for remaining at 1 h: read-out: % Drug remaining, 1 HR, dog blood; for remaining at 2 h: read-out: % Drug remaining, 2 HR, dog blood. The method, then:
Chemicals--Acetonitrile was "HPLC" grade. Distilled water was used to dissolve the compounds and 0.01 N HCl was used to dissolve compounds requiring an acidic pH for dissolution.
Enzyme Source--Fresh aqueous humor was collected from eyes of dogs using a 23-gauge needle while fresh dog blood was collected into heparinized Vacutainer tubes. Fresh liver was homogenized in 0.9% NaCl using a Potter-Elvehjem Teflon pestle and glass homogenizer to make a 25% (W/V) homogenate.
Incubation Condition--A 0.5 ml aliquot of dog aqueous humor, blood, or liver homogenate was incubated with 12.5 μg (0.5 ml) of β-blocker in a Dubnoff shaking metabolic incubator at 37° C. for 60 and 120 min. Denatured tissue controls were prepared by adding 2.0 ml of acetonitrile into 0.5 ml of aqueous humor, blood, or liver homogenate to destroy esterase activities prior to addition of the β-blockers. These controls were then incubated at 37° C. for 120 min. After 60 and 120 min, the incubations were terminated by addition of 2 ml of acetonitrile and immediately mixed by a Vortex.cndot. to stop esterase activities.
Sample Processing and Data Analyses--All samples were centrifuged at 4000 RPM for 10 min to sediment denatured proteins. The resultant supernatants were transferred to WISP.cndot. vials and analyzed using an HPLC assay developed for beta blockers. The hydrolysis of β-blockers by aqueous humor, blood, and liver homogenate was determined by disappearance of the compounds. The extent of enzymatic hydrolysis by each tissue was determined by comparing the amount of each compound (absolute peak area) recovered at each time point to the amount of each compound (absolute peak area) in denatured tissue control and aqueous control samples.

Data set [5] can be described thus: Enzymatic hydrolysis by dog aqueous humor (procedure C). Type of data set: in vitro ADME. To be noted: for remaining at 1 h / remaining at 2 h: 37° C., procedure C; for remaining at 1 h: read-out: % Drug remaining, 1 HR, dog aqueous humor; for remaining at 2 h: read-out: % Drug remaining, 2 HR, dog aqueous humor; for half-life: approximate value, determined by procedure C, read-out: T1/2 dog aqueous humor; for metabolised at 2 h: two hours, read-out: hydrolyzed in aqueous humor after two hours. An excerpt: Chemicals--Acetonitrile was "HPLC" grade. Distilled water was used to dissolve the compounds and 0.01 N HCl was used to dissolve compounds requiring an acidic pH for dissolution. Enzyme Source--Fresh aqueous humor was collected from eyes of dogs using a 23-gauge needle while fresh dog blood was collected into heparinized Vacutainer tubes. Fresh liver was homogenized in 0.9% NaCl using a Potter-Elvehjem Teflon pestle and glass homogenizer to make a 25% (W/V) homogenate. […] Denatured tissue controls were prepared by adding 2.0 ml of acetonitrile into 0.5 ml of aqueous humor, blood, or liver homogenate to destroy esterase activities prior to addition of the β-blockers. These controls were then incubated at 37° C. for 120 min. […] Sample Processing and Data Analyses--All samples were centrifuged at 4000 RPM for 10 min to sediment denatured proteins. The resultant supernatants were transferred to WISP.cndot. vials and analyzed using an HPLC assay developed for beta blockers. The hydrolysis of β-blockers by aqueous humor, blood, and liver homogenate was determined by disappearance of the compounds. The extent of enzymatic hydrolysis by each tissue was determined by comparing the amount of each compound (absolute peak area) recovered at each time point to the amount of each compound (absolute peak area) in denatured tissue control and aqueous control samples.

Sequence of β1 receptors, guinea pig right atria (H0W3H1 1-470): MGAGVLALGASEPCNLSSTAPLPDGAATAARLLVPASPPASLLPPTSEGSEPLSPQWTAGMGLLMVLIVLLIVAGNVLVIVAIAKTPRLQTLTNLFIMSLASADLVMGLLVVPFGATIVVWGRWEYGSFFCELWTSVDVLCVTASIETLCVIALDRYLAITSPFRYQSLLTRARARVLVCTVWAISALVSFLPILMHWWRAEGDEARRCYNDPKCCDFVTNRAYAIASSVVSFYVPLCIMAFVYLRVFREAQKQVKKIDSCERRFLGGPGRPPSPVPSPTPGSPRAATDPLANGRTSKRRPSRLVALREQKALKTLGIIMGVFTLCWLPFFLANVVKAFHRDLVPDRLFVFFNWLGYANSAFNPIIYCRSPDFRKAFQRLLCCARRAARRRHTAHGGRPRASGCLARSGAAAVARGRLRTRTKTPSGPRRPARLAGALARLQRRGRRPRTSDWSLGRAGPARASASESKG

On to `COC(=O)c1ccccc1OCC(O)CNCCNC(C)=O` (stereo not drawn) [Example I, Methyl 2-[2-Hydroxy-3-[N-2(-acetamidoethyl)amino]propoxy]benzoate], for which the half-life in data set [1] amounted to 1.03 ± 0.133 h. Besides, in data set [2], the half-life worked out at 2.78 h. Moreover, in data set [3], the Kb was 50.1 nM. For the same molecule, in data set [4], the share remaining at 1 h was 54% and the fraction remaining at 2 h came to 47%. In addition, in data set [5], the share remaining at 1 h was determined as 93%, the amount remaining at 2 h came to 93%, the half-life was more than 2 h and the metabolised at 2 h was determined as 7%.

`COC(=O)c1ccccc1OCC(O)CNCCNC(=O)C(C)C` (stereo not drawn) [II, Methyl 2-[2-Hydroxy-3-[N-[2-(2-methylpropionamido)ethyl]amino]propoxy]benzoate]: the half-life in data set [1] was 1.03 ± 0.05 h; in data set [2], more than 3 h; in data set [5] it was more than 2 h. In addition, the Kb in data set [3] is 7.94 nM. Moreover, the amount remaining at 1 h is 41% in data set [4] and 94% in data set [5]. The results for the amount remaining at 2 h in data set [4] and in data set [5] were 16% and 91%, respectively.

Turning to `COC(=O)c1ccccc1OCC(O)CNCCNC(=O)Cc1ccccc1` (stereo not drawn) [III, Methyl 2-[2-Hydroxy-3-[N-[2-(phenylacetamido)ethyl]amino]propoxy]benzoate], in data set [1], the half-life is 1.22 ± 0.267 h. In addition, in data set [2], the half-life turned out to be 2.15 h. Moreover, in data set [3], the Kb is 5.01 nM. Also, in data set [4], the amount remaining at 1 h came out at 53% and the share remaining at 2 h turned out to be 23%. Moreover, in data set [5], the share remaining at 1 h is 100%, the share remaining at 2 h came out at 98%, the half-life is more than 2 h and the metabolised at 2 h is 2%. In data set [5] (one hour, read-out: hydrolyzed in aqueous humor after one hour), the metabolised at 1 h amounted to 0%.
